Test results taken from the supplement of paper PMC9265050, “Inhibition of RNA Binding in SND1 Increases the Levels of miR-1-3p and Sensitizes Cancer Cells to Navitoclax” (Cancers, 2022).

System: SW480
Experiment: drug sensitivity score (DSS, integrated dose-response area); higher = more sensitive (stronger viability reduction); extreme values may be limits of the assay
Method in brief: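 SW480 cells stably carrying doxycycline-inducible control or SND1-targeting shRNA were induced with 0.1 µg/mL doxycycline for 7 days. They were then plated at 1000 cells per well in 384-well plates holding 525 commercially available small-molecule inhibitors at five concentrations. Viability was read with CellTiter-Glo after 72 h. The drug sensitivity score integrates the area under a fitted non-linear dose–response model.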

[1] = shRNA: SND1 shRNA1 (SND1 silenced)
[2] = shRNA: SND1 shRNA2 (SND1 silenced)
[3] = shRNA: control shRNA (non-targeting)

With Clc1ccc(Nc2nnc(Cc3ccncc3)c3ccccc23)cc1 [Vatalanib] the drug sensitivity score [1] was 1.8 DSS, the drug sensitivity score [2] was 6.5 DSS and the drug sensitivity score [3] was 2 DSS.
C[C@]1(c2nc3c(C(N)=O)cccc3[nH]2)CCCN1 [Veliparib] gave a drug sensitivity score [1] of 0 DSS, a drug sensitivity score [2] of 0 DSS and a drug sensitivity score [3] of 0 DSS.
With CCCS(=O)(=O)Nc1ccc(F)c(C(=O)c2c[nH]c3ncc(-c4ccc(Cl)cc4)cc23)c1F [Vemurafenib] the drug sensitivity score [1] was 0 DSS, the drug sensitivity score [2] was 0.1 DSS and the drug sensitivity score [3] was 0 DSS.
For CC1(C)CCC(CN2CCN(c3ccc(C(=O)NS(=O)(=O)c4ccc(NCC5CCOCC5)c([N+](=O)[O-])c4)c(Oc4cnc5[nH]ccc5c4)c3)CC2)=C(c2ccc(Cl)cc2)C1 [Venetoclax], the drug sensitivity score [1] was 0 DSS, the drug sensitivity score [2] was 0 DSS and the drug sensitivity score [3] was 0 DSS.
For O=C(/C=C\n1cnc(-c2cc(C(F)(F)F)cc(C(F)(F)F)c2)n1)NNc1ccccn1 [Verdinexor], the drug sensitivity score [1] was 8 DSS, the drug sensitivity score [2] was 4.5 DSS and the drug sensitivity score [3] was 8.6 DSS.
CC[C@]1(O)C[C@@H]2CN(CCc3c([nH]c4ccccc34)[C@@](C(=O)OC)(c3cc4c(cc3OC)N(C)[C@H]3[C@@](O)(C(=O)OC)[C@H](OC(C)=O)[C@]5(CC)C=CCN6CC[C@]43[C@@H]65)C2)C1 [Vinblastine] showed a drug sensitivity score [1] of 9.6 DSS, a drug sensitivity score [2] of 8 DSS and a drug sensitivity score [3] of 15.4 DSS.
For CC[C@]1(O)C[C@H]2CN(CCc3c([nH]c4ccccc34)[C@@](C(=O)OC)(c3cc4c(cc3OC)N(C=O)[C@H]3[C@@](O)(C(=O)OC)[C@H](OC(C)=O)[C@]5(CC)C=CCN6CC[C@]43[C@@H]65)C2)C1 [Vincristine], the drug sensitivity score [1] was 10.1 DSS, the drug sensitivity score [2] was 9.7 DSS and the drug sensitivity score [3] was 16.6 DSS.
In the case of CCC1=C[C@@H]2CN(C1)Cc1c([nH]c3ccccc13)[C@@](C(=O)OC)(c1cc3c(cc1OC)N(C)[C@H]1[C@@](O)(C(=O)OC)[C@H](OC(C)=O)[C@]4(CC)C=CCN5CC[C@]31[C@@H]54)C2 [Vinorelbine], the drug sensitivity score [1] was 19.3 DSS, the drug sensitivity score [2] was 19.5 DSS and the drug sensitivity score [3] was 22.4 DSS.
Molecule CS(=O)(=O)c1ccc(C(=O)Nc2ccc(Cl)c(-c3ccccn3)c2)c(Cl)c1 [Vismodegib] has a drug sensitivity score [1] of 0 DSS, a drug sensitivity score [2] of 0 DSS and a drug sensitivity score [3] of 0 DSS.
In the case of CC[C@@H]1C(=O)N(C)c2cnc(Nc3ccc(C(=O)N[C@H]4CC[C@H](N5CCN(CC6CC6)CC5)CC4)cc3OC)nc2N1C(C)C [Volasertib], the drug sensitivity score [1] was 13.1 DSS, the drug sensitivity score [2] was 14.4 DSS and the drug sensitivity score [3] was 14.8 DSS.
With O=C(CCCCCCC(=O)Nc1ccccc1)NO [Vorinostat] the drug sensitivity score [1] was 7.8 DSS, the drug sensitivity score [2] was 8 DSS and the drug sensitivity score [3] was 9.3 DSS.
Molecule CCn1c(=O)c(-c2cc[nH]n2)cc2c(C)nc(N)nc21 [Voxtalisib] has a drug sensitivity score [1] of 7.4 DSS, a drug sensitivity score [2] of 6.5 DSS and a drug sensitivity score [3] of 5.7 DSS.
Molecule Oc1nc(-c2ccc(C(F)(F)F)cc2)nc2c1CSCC2 [XAV-939] has a drug sensitivity score [1] of 3.9 DSS, a drug sensitivity score [2] of 0 DSS and a drug sensitivity score [3] of 3.2 DSS.
In the case of O=C(Nc1ccc(-c2ccnc(Nc3ccc(N4CCOCC4)cc3)n2)cc1)C1CCCN1 (stereo not drawn) [XL019], the drug sensitivity score [1] was 0.1 DSS and the drug sensitivity score [3] was 1.7 DSS.
With COc1cc2c(Nc3ccc(Cl)c(Cl)c3F)ncnc2cc1OC[C@@H]1C[C@@H]2CN(C)C[C@@H]2C1 [XL-647] the drug sensitivity score [1] was 2.1 DSS, the drug sensitivity score [2] was 3.1 DSS and the drug sensitivity score [3] was 2.4 DSS.
COCC[n+]1c2c(n(Cc3cnccn3)c1C)C(=O)c1ccccc1C2=O [YM155] was tested, and the drug sensitivity score [1] was 15.5 DSS, the drug sensitivity score [2] was 8.8 DSS and the drug sensitivity score [3] was 21.4 DSS.
FC(F)c1nc2ccccc2n1-c1nc(N2CCOCC2)nc(N2CCOCC2)n1 [ZSTK474] showed a drug sensitivity score [1] of 7.3 DSS, a drug sensitivity score [2] of 5.1 DSS and a drug sensitivity score [3] of 4 DSS.
For c1ccc(Cn2c(-c3ccc(OC[C@H](C4CCNCC4)n4c(-c5ccccc5)nc5ccccc54)cc3)nc3ccccc32)cc1 [deltarasin], the drug sensitivity score [1] was 5.7 DSS, the drug sensitivity score [2] was 6.6 DSS and the drug sensitivity score [3] was 4.4 DSS.
